Laboratory results taken from patent publication US20260217672A1, “BENZAMIDE COMPOUNDS FOR TREATMENT OF BACTERIAL INFECTIONS” (Hoffmann-La Roche Inc., priority 2022, published 2026).
In brackets after ≈: the same amount, converted by molar mass. Read-outs that look alike come from different tables or passages of the source.

Key:
[1] = Human microsome stability assay; format: in vitro ADME; settings: 1 μM test compound, 0.5 mg/mL liver microsomal protein, NADPH regenerating system, 37° C.; <7 low, 7-16.2 medium, >16.2 high
Description: The human microsomal stability assay is used for early assessment of metabolic stability of a test compound in human liver microsomes.
Human liver microsomes (Cat.NO.: 452117, Corning, USA) were pre-incubated with test compound for 10 minutes at 37° C. in 100 mM potassium phosphate buffer, pH 7.4. The reactions were initiated by adding NADPH regenerating system. The final incubation mixtures contained 1 μM test compound, 0.5 mg/mL liver microsomal protein, 1 mM MgCl2, 1 mM NADP, 1 unit/mL isocitric dehydrogenase and 6 mM isocitric acid in 100 mM potassium phosphate buffer, pH 7.4. After incubation times of 0, 3, 6, 9, 15 and 30 minutes at 37° C., 300 μL of cold acetonitrile (including internal standard) was added to 100 μL incubation mixture to terminate the reaction. Following precipitation and centrifugation, the amount of compound remaining in the samples were determined by LC-MS/MS. Controls of no NADPH regenerating system at zero and 30 minutes were also prepared and analyzed. […] (Human microsome clearance: <7 mL/min/kg (low); 7-16.2 mL/min/kg (medium); >16.2 mL/min/kg (high))

[2] = system: Klebsiella pneumonia ATCC 43816; experiment: Minimal Inhibitory Concentration (MIC) broth dilution assay; format: cell-based; settings: Klebsiella pneumoniae, read-out: MIC Klebsiella pneumoniae ATCC43816
Method in brief: (§1)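 Broth dilution MIC in cation-adjusted Mueller Hinton broth, final inoculum 5×10^5 CFU/mL, serial 2-fold compound dilutions from DMSO stocks. Plates incubated 20 hours at 35° C. in ambient air; MIC read visually as lowest concentration inhibiting visible growth.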

[3] = system: Escherichia coli ATCC 25922; experiment: as above; format: cell-based; settings: read-out: MIC Escherichia coli ATCC 25922
Method in brief: as §1

[4] = system: efflux-deficient E. coli strains; settings: Bioorganic Chemistry 102 (2020) 104055; cited from earlier work
LPS synthesis pathway = settings: Bioorganic Chemistry 102 (2020) 104055; cited from earlier work

SMILES	Clearance of Human microsome [1]	MIC ([2]; ATCC43816, 20 h)	MIC ([3]; ATCC25922, 20 h)	MIC ([2]; ATCC43816, broth dilution in CAMHB, 5×10^5 CFU/mL, 20 hours at 35° C.)	MIC ([3]; ATCC25922, broth dilution in CAMHB, 5×10^5 CFU/mL, 20 hours at 35° C.)	antibiotic activity against efflux-deficient E. coli strains [4]	LPS synthesis pathway inhibition activity (LPS synthesis pathway)
NCCCNCc1ccc(C(=O)Nc2ccc(S(=O)(=O)N3CCN(c4cc(C(F)(F)F)cc(Cl)n4)CC3)cc2)cc1 [Example 001, 4-[(3-Aminopropylamino)methyl]-N-[4-[4-[6-chloro-4-(trifluoromethyl)-2-pyridyl]piperazin-1-yl]sulfonylphenyl]benzamide]	6.2 mL/min/kg	1.5 µg/mL (≈ 2.45 µM)	0.51 µg/mL (≈ 0.835 µM)	–	–	–	–
NCCCNCc1ccc(C(=O)Nc2ccc(S(=O)(=O)N3CCN(c4nccc(C(F)(F)F)n4)CC3)cc2)cc1 [Example 012, 4-[(3-Aminopropylamino)methyl]-N-[4-[4-[4-(trifluoromethyl)pyrimidin-2-yl]piperazin-1-yl]sulfonylphenyl]benzamide]	6.2 mL/min/kg	3.6 µg/mL (≈ 6.23 µM)	1.8 µg/mL (≈ 3.12 µM)	–	–	–	–
N#Cc1cc(Cl)nc(N2CCN(S(=O)(=O)c3ccc(NC(=O)c4cccc(CNCCCN)c4)cc3)CC2)c1 [Example 020, 3-[(3-Aminopropylamino)methyl]-N-[4-[4-(6-chloro-4-cyano-2-pyridyl)piperazin-1-yl]sulfonylphenyl]benzamide]	8.8 mL/min/kg	2.5 µg/mL (≈ 4.4 µM)	1.2 µg/mL (≈ 2.11 µM)	–	–	–	–
O=C(c1cnn2cccnc12)N1CCc2cc(S(=O)(=O)N3CCN(c4cc(C(F)(F)F)cc(Cl)n4)CC3)ccc21 [Example 034, [5-[4-[6-Chloro-4-(trifluoromethyl)-2-pyridyl]piperazin-1-yl]sulfonylindolin-1-yl]-pyrazolo[1,5-a]pyrimidin-3-yl-methanone]	6.2 mL/min/kg	0.92 µg/mL (≈ 1.55 µM)	0.92 µg/mL (≈ 1.55 µM)	–	–	–	–
O=C(C1=NOC2(CCCNC2)C1)N1CCc2cc(S(=O)(=O)N3CCN(c4cc(C(F)(F)F)cc(Cl)n4)CC3)ccc21 (centres unmarked) [Example 039]	9.4 mL/min/kg	–	–	–	–	–	–
O=C(CNCCO)N1CCc2cc(S(=O)(=O)N3CCN(c4cc(C(F)(F)F)cc(Cl)n4)CC3)ccc21 [Example 041, 1-[5-[4-[6-Chloro-4-(trifluoromethyl)-2-pyridyl]piperazin-1-yl]sulfonylindolin-1-yl]-2-(2-hydroxyethylamino)ethanone]	6.2 mL/min/kg	8.3 µg/mL (≈ 15.1 µM)	1 µg/mL (≈ 1.82 µM)	–	–	–	–
CC(=O)Oc1ccc(C(=O)N2CCc3cc(S(=O)(=O)N4CCN(c5cc(C(F)(F)F)cc(Cl)n5)CC4)ccc32)cc1OC(C)=O [Example 043, [2-Acetoxy-4-[5-[4-[6-chloro-4-(trifluoromethyl)-2-pyridyl]piperazin-1-yl]sulfonylindoline-1-carbonyl]phenyl]acetate]	6.2 mL/min/kg	2.1 µg/mL (≈ 3.15 µM)	4.2 µg/mL (≈ 6.3 µM)	–	–	–	–
NCCCN1CCN(c2cccc(C(=O)Nc3ccc(S(=O)(=O)N4CCN(c5cc(C(F)(F)F)cc(Cl)n5)CC4)cc3)c2)CC1 [Example 068, 3-[4-(3-Aminopropyl)piperazin-1-yl]-N-[4-[4-[6-chloro-4-(trifluoromethyl)-2-pyridyl]piperazin-1-yl]sulfonylphenyl]benzamide]	6.2 mL/min/kg	2.1 µg/mL (≈ 3.15 µM)	1 µg/mL (≈ 1.5 µM)	–	–	–	–
O=C(Nc1ccc(S(=O)(=O)N2CCN(c3cc(C(F)(F)F)cc(Cl)n3)CC2)cc1)c1ccc(CCN2C3CNCC2C3)cc1 [Example 075, N-[4-[4-[6-chloro-4-(trifluoromethyl)-2-pyridyl]piperazin-1-yl]sulfonylphenyl]-4-[2-(3,6-diazabicyclo[3.1.1]heptan-6-yl)ethyl]benzamide]	–	–	–	5.5 µg/mL (≈ 8.47 µM)	2.7 µg/mL (≈ 4.16 µM)	–	–
O=C(Nc1ccc(S(=O)(=O)N2CCN(c3cc(C(F)(F)F)cc(Cl)n3)CC2)cc1)c1cccc(CNCC2CCNCC2)c1 [Example 076, N-[4-[4-[6-chloro-4-(trifluoromethyl)-2-pyridyl]piperazin-1-yl]sulfonylphenyl]-3-[(4-piperidylmethylamino)methyl]benzamide]	–	2.7 µg/mL (≈ 4.15 µM)	0.69 µg/mL (≈ 1.06 µM)	–	–	–	–
NC1CC(CNCc2cccc(C(=O)Nc3ccc(S(=O)(=O)N4CCN(c5cc(C(F)(F)F)cc(Cl)n5)CC4)cc3)c2)C1 (centres unmarked) [Example 077, 3-[[(3-Aminocyclobutyl)methylamino]methyl]-N-[4-[4-[6-chloro-4-(trifluoromethyl)-2-pyridyl]piperazin-1-yl]sulfonylphenyl]benzamide]	–	2.7 µg/mL (≈ 4.24 µM)	0.68 µg/mL (≈ 1.07 µM)	–	–	–	–
O=C(Nc1ccc(S(=O)(=O)N2CCN(c3cc(C(F)(F)F)cc(Cl)n3)CC2)cc1)c1cccc(CNCCCN2CCNCC2)c1 [Example 078, N-[4-[4-[6-chloro-4-(trifluoromethyl)-2-pyridyl]piperazin-1-yl]sulfonylphenyl]-3-[(3-piperazin-1-ylpropylamino)methyl]benzamide]	6.2 mL/min/kg	5.7 µg/mL (≈ 8.38 µM)	1.4 µg/mL (≈ 2.06 µM)	–	–	–	–
NC1(C2CCN(Cc3cccc(C(=O)Nc4ccc(S(=O)(=O)N5CCN(c6cc(C(F)(F)F)cc(Cl)n6)CC5)cc4)c3)C2)CC1 (centres unmarked) [Example 079, 3-[[3-(1-Aminocyclopropyl)pyrrolidin-1-yl]methyl]-N-[4-[4-[6-chloro-4-(trifluoromethyl)-2-pyridyl]piperazin-1-yl]sulfonylphenyl]benzamide]	–	2.2 µg/mL (≈ 3.32 µM)	1.1 µg/mL (≈ 1.66 µM)	–	–	–	–
O=C(Nc1ccc(S(=O)(=O)N2CCN(c3cc(C(F)(F)F)cc(Cl)n3)CC2)cc1)c1cccc(CNCCCN(CCO)CCO)c1 [Example 080, 3-[[3-[Bis(2-hydroxyethyl)amino]propylamino]methyl]-N-[4-[4-[6-chloro-4-(trifluoromethyl)-2-pyridyl]piperazin-1-yl]sulfonylphenyl]benzamide]	–	2.9 µg/mL (≈ 4.15 µM)	1.4 µg/mL (≈ 2 µM)	–	–	–	–
COc1ccc(CNCCCC2CCNCC2)cc1C(=O)Nc1ccc(S(=O)(=O)N2CCN(c3cc(C(F)(F)F)cc(Cl)n3)CC2)cc1 [Example 081, N-[4-[4-[6-chloro-4-(trifluoromethyl)-2-pyridyl]piperazin-1-yl]sulfonylphenyl]-2-methoxy-5-[[3-(4-piperidyl)propylamino]methyl]benzamide]	–	2.9 µg/mL (≈ 4.09 µM)	1.5 µg/mL (≈ 2.11 µM)	–	–	–	–
NCC12CC1CN(Cc1cccc(C(=O)Nc3ccc(S(=O)(=O)N4CCN(c5cc(C(F)(F)F)cc(Cl)n5)CC4)cc3)c1)C2 (centres unmarked) [Example 082, 3-[[1-(Aminomethyl)-3-azabicyclo[3.1.0]hexan-3-yl]methyl]-N-[4-[4-[6-chloro-4-(trifluoromethyl)-2-pyridyl]piperazin-1-yl]sulfonylphenyl]benzamide]	–	1.4 µg/mL (≈ 2.16 µM)	0.69 µg/mL (≈ 1.06 µM)	–	–	–	–
O=C1NC(CNCc2cccc(C(=O)Nc3ccc(S(=O)(=O)N4CCN(c5cc(C(F)(F)F)cc(Cl)n5)CC4)cc3)c2)CO1 (centres unmarked) [Example 084, N-[4-[4-[6-chloro-4-(trifluoromethyl)-2-pyridyl]piperazin-1-yl]sulfonylphenyl]-3-[[(2-oxooxazolidin-4-yl)methylamino]methyl]benzamide]	–	4.8 µg/mL (≈ 7.35 µM)	4.8 µg/mL (≈ 7.35 µM)	–	–	–	–
COc1ccc(CN2CCC3CNCC32)cc1C(=O)Nc1ccc(S(=O)(=O)N2CCN(c3cc(C(F)(F)F)cc(Cl)n3)CC2)cc1 (centres unmarked) [Example 087, 5-(3,3a,4,5,6,6a-Hexahydro-2H-pyrrolo[3,4-b]pyrrol-1-ylmethyl)-N-[4-[4-[6-chloro-4-(trifluoromethyl)-2-pyridyl]piperazin-1-yl]sulfonylphenyl]-2-methoxy-benzamide]	–	2.5 µg/mL (≈ 3.68 µM)	1.2 µg/mL (≈ 1.77 µM)	–	–	–	–
NCCCNCc1ccccc1C(=O)Nc1ccc(S(=O)(=O)N2CCN(c3cc(C(F)(F)F)cc(Cl)n3)CC2)cc1 [Example 088, 2-[(3-Aminopropylamino)methyl]-N-[4-[4-[6-chloro-4-(trifluoromethyl)-2-pyridyl]piperazin-1-yl]sulfonylphenyl]benzamide]	–	2.6 µg/mL (≈ 4.25 µM)	1.3 µg/mL (≈ 2.13 µM)	–	–	–	–
CC(=O)N1CCc2cc(S(=O)(=O)N3CCN(c4cc(Cl)cc(C(F)(F)F)c4)CC3)ccc21 [Example F-1, reference compound]	14 mL/min/kg	> 24 µg/mL	> 24 µg/mL	–	–	antibiotic activity	LPS synthesis pathway inhibition activity
